Laboratory results taken from patent publication US20120065187A1 (ALCON RESEARCH, LTD, priority 2008, published 2012).

Assays:
[1] = system: Hartley VAF outbred guinea pigs; assay: Allergic conjunctivitis in passively sensitized guinea pigs (conjunctival EPO activity); format: in vivo; parameters: key: +: a 0.01% bid dose was statistically equivalent to dexamethasone with respect to reduction of EPO activity; −: the compound was statistically inferior to dexamethasone and not different than vehicle; settings: 0.01% bid topical, 1 hour prior to and 8 hours after ovalbumin challenge; reduction of conjunctival EPO activity vs dexamethasone
Protocol: (§1) Male Hartley VAF outbred guinea pigs were passively sensitized to ovalbumin by a single OD subconjunctival injection of undiluted guinea pig anti-ovalbumin antiserum 24 hours before OD topical challenge with 500 μg ovalbumin in saline. Control animals were injected with saline only and challenged with ovalbumin. To determine acute phase drug efficacy, 30 min after challenge animals were clinically scored by a masked observer for severity of signs of conjunctivitis based on a standard scale. Test compounds were administered topically 1 hour prior to challenge (QD protocol), or 1 hour prior to challenge and again 8 hours after challenge (BID protocol). Twenty-four hours after challenge, animals were euthanized and conjunctivae were harvested for determination of tissue eosinophil peroxidase (EPO) concentration as a marker of allergic inflammation. Homogenates of freshly collected tissues were prepared by shaking the tissues in 2 mL round-bottom tubes containing 0.5 mL of homogenization buffer (50 mM Tris HCl, pH 8.0, 6 mM KBr) and one 5-mm stainless steel bead on a Qiagen TissueLyser at 30 Hz for 5 min. Homogenates were frozen and thawed once, then centrifuged at 10,000 rpm for 5 min. EPO activity in supernatants was measured by reacting diluted homogenates with a solution of 6 mM o-phenylenediamine substrate and 8.8 mM H2O2 in homogenization buffer for 3 min. The reaction was stopped with 4M H2SO4 and absorbances were measured at […] on a spectrophotometric plate reader. Total EPO in samples was calculated from a standard curve of recombinant human EPO in each assay. EPO activity was normalized to total protein concentration (Pierce BCA assay) in supernatants. Background EPO activity was determined from the unsensitized, antigen-challenged control group. Percent inhibition was calculated from the sensitized, antigen-challenged, vehicle-treated control group in each experiment. Ovalbumin-injected animals dosed topically with 0.1% w/v dexamethasone (dex) served as positive control. Groups were compared by ANOVA with Dunnett's or Tukey's post-hoc tests where appropriate with significance assigned at the 95% confidence level.
(§2) The table below summarizes the results.

[2] = system: Hartley VAF outbred guinea pigs; assay: as above; format: in vivo; parameters: key: +: a ≦0.1% qd dose was statistically equivalent to dexamethasone with respect to reduction of EPO activity; −: the compound was statistically inferior to dexamethasone and not different than vehicle; settings: ≦0.1% qd topical, 1 hour prior to ovalbumin challenge; reduction of conjunctival EPO activity vs dexamethasone
Protocol: as §1, §2

Row | SMILES | BID activity [1] | QD activity [2]
1 | CN1CCN(c2nc3ccc(Cl)cc3n3cnnc23)CC1 [Example 55, 8-chloro-4-(4-methylpiperazin-1-yl)-[1,2,4]triazolo[4,3-a]quinoxaline] | + | +
2 | Clc1ccc2nc(N3CCNCC3)c3nncn3c2c1 [Example 57, 8-chloro-4-(piperazin-1-yl)-[1,2,4]triazolo[4,3-a]quinoxaline] | + | +
